Measured values published in patent US10370371B2, “Substituted pyrimidine Bmi-1 inhibitors” (PTC Therapeutics, Inc., priority 2013, dated 2019).

Experiments:
Bmi-1 protein = experiment: Sandwich ELISA Assay (Bmi-1 protein level in HT-1080 cells); assay type: cell-based
Outline: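 HT-1080 cells were treated with compounds (0.5% DMSO final) for 40-48 h at 37 °C. Lysates were assayed by sandwich ELISA: mouse anti-Bmi-1 capture, rabbit anti-Bmi-1 and HRP anti-rabbit detection, TMB read at OD450 (OD570 reference). Levels were quantified against a recombinant GST-Bmi-1 standard curve (125-8000 pg/mL).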

| SMILES | melting point [°C] | EC50 (Bmi-1 protein) [nM] |
| --- | --- | --- |
| Nc1cc(-c2c(C(F)F)nc3ccc(F)cn23)nc(Nc2ccc(C(F)(F)F)cc2)n1 [Cpd 63, 6-[2-(difluoromethyl)-6-fluoroimidazo[1,2-a]pyridin-3-yl]-N^2-[4-(trifluoromethyl)phenyl]pyrimidine-2,4-diamine] | 242 to 245 | 100 to 3000 |
| COCc1nc2ccccc2n1-c1cc(N)nc(Nc2ccc(C(F)(F)F)cc2)n1 [Cpd 73, 6-[2-(methoxymethyl)-1H-benzimidazol-1-yl]-N^2-[4-(trifluoromethyl)phenyl]pyrimidine-2,4-diamine] | 209 to 211 | 100 to 3000 |
| CC(C)c1nc2ccccc2n1-c1cc(N)nc(Nc2ccc(C(F)(F)F)cc2)n1 [Cpd 74, 6-[2-(propan-2-yl)-1H-benzimidazol-1-yl]-N^2-[4-(trifluoromethyl)phenyl]pyrimidine-2,4-diamine] | 168 to 171 | 100 to 3000 |
| Cc1nc2ccccc2n1-c1cc(N)nc(Nc2ccc3c(c2)OC(F)(F)O3)n1 [Cpd 147, N^2-(2,2-difluoro-1,3-benzodioxol-5-yl)-6-(2-methyl-1H-benzimidazol-1-yl)pyrimidine-2,4-diamine] |  | 100 to 3000 |
| CCc1nc2ccc(F)cc2n1-c1cc(N)nc(Nc2cccc(Cl)c2)n1 [Cpd 164, N^2-(3-chlorophenyl)-6-(2-ethyl-6-fluoro-1H-benzimidazol-1-yl)pyrimidine-2,4-diamine] |  | 100 to 3000 |
| Cc1cccc(Nc2nc(N)cc(-c3c(C)nc4ccc(F)cn34)n2)c1 [Cpd 173, 6-(6-fluoro-2-methylimidazo[1,2-a]pyridin-3-yl)-N^2-(3-methylphenyl)pyrimidine-2,4-diamine] |  | 100 to 3000 |
| Cc1ccc(Nc2nc(N)cc(-c3c(C)noc3C)n2)cc1 [Cpd 190, 6-(3,5-dimethyl-1,2-oxazol-4-yl)-N^2-(4-methylphenyl)pyrimidine-2,4-diamine] |  | 100 to 3000 |
| Cc1nc2cc(F)ccc2n1-c1cc(N)nc(Nc2ccc(Cl)cc2)n1 [Cpd 191, N^2-(4-chlorophenyl)-6-(5-fluoro-2-methyl-1H-benzimidazol-1-yl)pyrimidine-2,4-diamine] |  | 100 to 3000 |
| Cc1nc2cc(F)ccc2n1-c1cc(N)nc(Nc2ccc(Cl)c(F)c2)n1 [Cpd 192, N^2-(4-chloro-3-fluorophenyl)-6-(5-fluoro-2-methyl-1H-benzimidazol-1-yl)pyrimidine-2,4-diamine] |  | 100 to 3000 |
| Cc1nc2cc(F)c(F)cc2n1-c1cc(N)nc(Nc2cccc(Cl)c2)n1 [Cpd 193, N^2-(3-chlorophenyl)-6-(5,6-difluoro-2-methyl-1H-benzimidazol-1-yl)pyrimidine-2,4-diamine] |  | 100 to 3000 |
| Cc1nc2cc(F)c(F)cc2n1-c1cc(N)nc(Nc2ccc([N+](=O)[O-])cc2)n1 [Cpd 194, 6-(5,6-difluoro-2-methyl-1H-benzimidazol-1-yl)-N^2-(4-nitrophenyl)pyrimidine-2,4-diamine] |  | 100 to 3000 |
| Cc1cccc(Nc2nc(N)cc(-n3c(C)nc4cc(F)c(F)cc43)n2)c1 [Cpd 195, 6-(5,6-difluoro-2-methyl-1H-benzimidazol-1-yl)-N^2-(3-methylphenyl)pyrimidine-2,4-diamine] |  | 100 to 3000 |
| COc1cccc(Nc2nc(N)cc(-n3c(C)nc4cc(F)c(F)cc43)n2)c1 [Cpd 196, 6-(5,6-difluoro-2-methyl-1H-benzimidazol-1-yl)-N^2-(3-methoxyphenyl)pyrimidine-2,4-diamine] |  | 100 to 3000 |
| COc1ccc(Nc2nc(N)c(Cl)c(-n3c(C)nc4ccccc43)n2)cc1 [Cpd 197, 5-chloro-N^2-(4-methoxyphenyl)-6-(2-methyl-1H-benzimidazol-1-yl)pyrimidine-2,4-diamine] |  | 100 to 3000 |
| Cc1noc(C)c1-c1cc(N)nc(Nc2ccc(Cl)cc2)n1 [Cpd 198, N^2-(4-chlorophenyl)-6-(3,5-dimethylisoxazol-4-yl)pyrimidine-2,4-diamine] |  | 100 to 3000 |
| Cc1nc2cc(F)ccc2n1-c1cc(N)[n+]([O-])c(Nc2ccc(C(F)(F)F)cc2)n1 [Cpd 199, 6-(5-fluoro-2-methyl-1H-benzimidazol-1-yl)-N^2-[4-(trifluoromethyl)phenyl]pyrimidine-2,4-diamine 3-oxide] |  | 100 to 3000 |

Further lines, results first:

| melting point [°C] | EC50 (Bmi-1 protein) [nM] | SMILES |
| --- | --- | --- |
| 189 to 190 | 1 to 10 | Cc1nc2ccc(F)cn2c1-c1cc(N)nc(Nc2ccc(OC(F)F)cc2)n1 [Cpd 2, N^2-[4-(difluoromethoxy)phenyl]-6-(6-fluoro-2-methylimidazo[1,2-a]pyridin-3-yl)pyrimidine-2,4-diamine] |
| 141 to 143 | 10 to 100 | Cc1nc2ccc(F)cc2n1-c1cc(N)nc(Nc2ccc(OC(F)F)cc2)n1 [Cpd 5, N^2-[4-(difluoromethoxy)phenyl]-6-(6-fluoro-2-methyl-1H-benzimidazol-1-yl)pyrimidine-2,4-diamine] |
| 159 to 161 | 10 to 100 | CCc1nc2ccc(F)cc2n1-c1cc(N)nc(Nc2ccc(OC(F)F)c(F)c2)n1 [Cpd 11, N^2-[4-(difluoromethoxy)-3-fluorophenyl]-6-(2-ethyl-6-fluoro-1H-benzimidazol-1-yl)pyrimidine-2,4-diamine] |
| 185 to 186 | 10 to 100 | Nc1cc(-n2c(C3CC3)nc3ccc(F)cc32)nc(Nc2ccc(OC(F)F)c(F)c2)n1 [Cpd 12, 6-(2-cyclopropyl-6-fluoro-1H-benzimidazol-1-yl)-N^2-[4-(difluoromethoxy)-3-fluorophenyl]pyrimidine-2,4-diamine] |
| 201 to 203 | 10 to 100 | Nc1cc(-n2c(C(F)F)nc3ccc(F)cc32)nc(Nc2ccc(C(F)(F)F)cc2)n1 [Cpd 33, 6-[2-(difluoromethyl)-6-fluoro-1H-benzimidazol-1-yl]-N^2-[4-(trifluoromethyl)phenyl]pyrimidine-2,4-diamine] |
| 177 to 179 | 10 to 100 | Nc1cc(-n2c(C3CC3)nc3ccc(F)cc32)nc(Nc2ccc(OC(F)F)cc2)n1 [Cpd 70, 6-(2-cyclopropyl-6-fluoro-1H-benzimidazol-1-yl)-N^2-[4-(difluoromethoxy)phenyl]pyrimidine-2,4-diamine] |
| 171 to 173 | 10 to 100 | CCc1nc2ccc(F)cc2n1-c1cc(N)nc(Nc2ccc(OC(F)F)cc2)n1 [Cpd 71, N^2-[4-(difluoromethoxy)phenyl]-6-(2-ethyl-6-fluoro-1H-benzimidazol-1-yl)pyrimidine-2,4-diamine] |
| 120 to 122 | 10 to 100 | COCc1nc2ccc(F)cc2n1-c1cc(N)nc(Nc2ccc(OC(F)F)cc2)n1 [Cpd 78, N^2-[4-(difluoromethoxy)phenyl]-6-[6-fluoro-2-(methoxymethyl)-1H-benzimidazol-1-yl]pyrimidine-2,4-diamine] |
|  | 1 to 10 | COc1ccc(Nc2nc(N)cc(-n3c(C)nc4ccccc43)n2)cc1Cl [Cpd 149, N^2-(3-chloro-4-methoxyphenyl)-6-(2-methyl-1H-benzimidazol-1-yl)pyrimidine-2,4-diamine] |
|  | 1 to 10 | CCc1nc2ccccc2n1-c1cc(N)nc(Nc2ccc(C)cc2)n1 [Cpd 153, 6-(2-ethyl-1H-benzimidazol-1-yl)-N^2-(4-methylphenyl)pyrimidine-2,4-diamine] |
|  | 1 to 10 | COc1ccc(Nc2nc(N)cc(-c3c(C)nc4ccc(F)cn34)n2)cc1 [Cpd 170, 6-(6-fluoro-2-methylimidazo[1,2-a]pyridin-3-yl)-N^2-(4-methoxyphenyl)pyrimidine-2,4-diamine] |
|  | 1 to 10 | Cc1ccc(Nc2nc(N)cc(-c3c(C)nc4ccc(F)cn34)n2)cc1 [Cpd 171, 6-(6-fluoro-2-methylimidazo[1,2-a]pyridin-3-yl)-N^2-(4-methylphenyl)pyrimidine-2,4-diamine] |
|  | 10 to 100 | Cc1nc2ccc(F)cc2n1-c1cc(N)nc(Nc2ccc(Cl)c(F)c2)n1 [Cpd 174, N^2-(4-chloro-3-fluorophenyl)-6-(6-fluoro-2-methyl-1H-benzimidazol-1-yl)pyrimidine-2,4-diamine] |
|  | 10 to 100 | COc1ccc(Nc2nc(N)c(F)c(-n3c(C)nc4ccccc43)n2)cc1 [Cpd 176, 5-fluoro-N^2-(4-methoxyphenyl)-6-(2-methyl-1H-benzimidazol-1-yl)pyrimidine-2,4-diamine] |
|  | 10 to 100 | Cc1nc2ccccc2n1-c1cc(N)nc(Nc2ccc(Cl)cc2)n1 [Cpd 177, N^2-(4-chlorophenyl)-6-(2-methyl-1H-benzimidazol-1-yl)pyrimidine-2,4-diamine] |
|  | 1 to 10 | Cc1ccc(Nc2nc(N)c(F)c(-n3c(C)nc4ccccc43)n2)cc1 [Cpd 178, 5-fluoro-6-(2-methyl-1H-benzimidazol-1-yl)-N^2-(4-methylphenyl)pyrimidine-2,4-diamine] |
|  | 10 to 100 | Cc1nc2ccccc2n1-c1cc(N)nc(Nc2ccc(Cl)c(F)c2)n1 [Cpd 179, N^2-(4-chloro-3-fluorophenyl)-6-(2-methyl-1H-benzimidazol-1-yl)pyrimidine-2,4-diamine] |
|  | 1 to 10 | COc1ccc(Nc2nc(N)cc(-n3c(C)nc4cc(F)c(F)cc43)n2)cc1 [Cpd 180, 6-(5,6-difluoro-2-methyl-1H-benzimidazol-1-yl)-N^2-(4-methoxyphenyl)pyrimidine-2,4-diamine] |
|  | 1 to 10 | Cc1ccc(Nc2nc(N)cc(-n3c(C)nc4cc(F)c(F)cc43)n2)cc1 [Cpd 181, 6-(5,6-difluoro-2-methyl-1H-benzimidazol-1-yl)-N^2-(4-methylphenyl)pyrimidine-2,4-diamine] |
|  | 10 to 100 | Cc1nc2cc(F)c(F)cc2n1-c1cc(N)nc(Nc2ccc(Cl)cc2)n1 [Cpd 182, N^2-(4-chlorophenyl)-6-(5,6-difluoro-2-methyl-1H-benzimidazol-1-yl)pyrimidine-2,4-diamine] |
|  | 10 to 100 | Cc1ccc(Nc2nc(N)cc(-n3c(C)nc4cc(C)c(C)cc43)n2)cc1 [Cpd 183, N^2-(4-methylphenyl)-6-(2,5,6-trimethyl-1H-benzimidazol-1-yl)pyrimidine-2,4-diamine] |
